The term IC50 denotes the concentration that gives 50% inhibition. High values mean weaker potency, low ones greater potency.

The results in this text go back to patent US20260137697A1, “THIAZOLO[5,4-D]PYRIMIDINE COMPOUNDS, COMPOSITIONS COMPRISING THEM AND USES THEREOF” (University de Montreal, priority 2022, published 2026).

What all share (format): cell-based, human
The subject of one test is SW480 cells. The experiment in a line: Proliferation inhibition, CellTiter-Glo, SW480. Conditions: Table D-2, SW480 (KRAS G12D), 3 days, read-out: Prolif. (proliferation EC50). As to the method:
(§1) All cancer cell lines (A375, A101D, A2058, RKO, HT29 SK-MEL 30, IPC298, HepG2, HCT-116, Lovo, SW620, SW480, NCI-H358, NCI-H2122, Calu-6, NCIH2087, NCIH1755, NCIH1666 and Mewo) were obtained from ATCC and cultured in RPM1-1640 medium (Gibco) supplemented with 5% heat inactivated fetal bovine serum (FBS, Wisent) at 37° C. under 5% CO2. Cells were maintained in T175 flasks (Greiner). They were passaged by removing the culture medium, washing once in 10 mL of room temperature Phosphate Buffered Saline (PBS; Wisent) and incubating at 37° C. with 2 mL of 0.05% Trypsin (Thermo-Fisher). Trypsin was then inactivated by adding complete growth medium and the cells were then replated in a T175 culture dish at the appropriate dilution. All cell lines were routinely tested for mycoplasma contamination. Tissue type and mutational status of each cell line can be found in Table B.
(§2) CellTiter-Glo® viability analysis was conducted on cells plated in 100 μL of complete RPMI-1640 growth medium in 96-well flat-bottomed white opaque plates (Greiner or Croning) at a density indicated in Table E (for each CCL, number of cells plated per well of a 96-well plate to perform the CellTiter-Glo® cell viability assay). The cell density in cells/cm^2 would correspond to cell number divided by the area of one well of a 96-well plate (0.32 cm^2). […]
(§3) After 3 days of incubation, the growth media were removed by aspiration and 60 μL of diluted CellTiter-Glo® reagent (10 μL CellTiter-Glo® reagent+50 μL of PBS) was added to each well. […] Luminescence signals were then acquired on a Synergy Neo2 plate reader (Biotek).
(§4) The effect of each compound dilution on the proliferation of cancer cell lines was expressed in % inhibition and calculated as follows. […]
(§5) The ability of each compound to inhibit proliferation was expressed as a EC50 value obtained by plotting the effect values for each data point of a dilution series and fitting the obtained curves using a log(agonist) versus response—variable slope (four parameters) function using GraphPadPrism (V7.0) or Dotmatics Screening Ultra platform.

In the next test the test system is Lovo cells. As to the kind of experiment: Proliferation inhibition, CellTiter-Glo, Lovo. The conditions noted are these: Table D-2, Lovo (KRAS-G13D), 3 days, read-out: Prolif. (proliferation EC50). Here is the method:
as §1, §2, §3, §4, §5

In a further test the test system is pERK, NCIH1755 cells. As to the kind of experiment: Phospho-ERK inhibition, AlphaLISA p-ERK 1/2, NCIH1755. The conditions noted are these: Table D-2; for IC50: NCIH1755 (BRAF G469A); for pERK value in parentheses, % inhibition (Ymin): NCIH1755, lowest point of IC50 curve. Here is the method:
as §1
(c) Measurement of Phospho-ERK Inhibition in Cultivated Human Cancer Cell Lines by the AlphaLISA® SureFire® Ultra™ p-ERK 1/2 (Thr2O2/Tyr204)
AlphaLISA® SureFire® Ultra™ p-ERK 1/2 (Thr202/Tyr204) analysis was conducted on cells plated in 100 μL of complete RPMI-1640 growth medium in 96-well flat-bottomed transparent dishes (Costar) at a density indicated in Table C. Cells were maintained overnight at 37° C. under 5% CO2 before treatment with compounds' dilution series for one hour. The cell density in cells/cm^2 corresponds to cell number divided by the area of one well of a 96-well plate (0.143 cm^2).
In a dilution series 100 μL/well of test substance dilution prepared in complete RPMI-1640 growth media was added to the cells. The dilution series is selected so that ten concentrations cover a range from 10 μM to 0.33 nM. If necessary, the initial concentration of 10 μM is increased to 100 μM or lowered to 1 μM (as in the case of A375 and H1666 cells, which are generally more sensitive to the compounds) and further dilution is carried out accordingly. The final concentration of DMSO in the assay is set at 0.5%.
After treatment, media was removed, and cells were lysed in 50 μL of 1× AlphaScreen Ultra Lysis Buffer (Perkin Elmer). The AlphaLISA® SureFire® Ultra™ p-ERK 1/2 (Thr202/Tyr204) (PerkinElmer) reactions were performed with 5 μL of cell lysate according to the manufacturer's specifications in 384-well proxyplates (Perkin Elmer) followed by overnight incubation of the reactions at room temperature in a humidified chamber. After completion of the reactions, the signals were recorded on an EnVision plate reader (Perkin Elmer) using built in AlphaLISA® settings.
The effect of each compound dilution on the pERK signal was expressed in % inhibition and calculated as follows. An internal 100% inhibition control (1 μM trametinib, cat. No. HY-10999; MedChem Express; CAS No. 871700-17-3) was included in each plate and used as a measure of pERK background. First, the value obtained for trametinib was subtracted from each data point. The average of DMSO (vehicle) controls (set as 0% inhibition) was established and used to calculate % inhibition:
The ability of each compound to inhibit pERK signal was expressed as an IC50 value obtained by plotting the inhibition values for each data point of a dilution series and fitting the obtained curves using a log(agonist) versus response—variable slope (four parameters) function using GraphPadPrism (V7.0) or Dotmatics Screening Ultra platform.
When present, paradoxical pERK induction is inferred from the negative % inhibition values observed in the pERK IC50 curves of a compound.
Background: Alpha assays give light when donor and acceptor beads are brought close together.

The subject of another test is NCI-H2122 cells. The experiment in a line: Proliferation inhibition, CellTiter-Glo, NCI-H2122. Conditions: Table D-2, NCI-H2122 (KRAS-G12C), 3 days, read-out: Prolif. (proliferation EC50). As to the method: as §1, §2, §3, §4, §5
For a further test, the system named is Calu6 cells. The experiment in a line: Proliferation inhibition, CellTiter-Glo, Calu-6. The conditions noted are these: Table D-2, Calu6 (KRAS Q61K), 3 days, read-out: Prolif. (proliferation EC50). As to the method:
as §1, §2, §3, §4, §5
On the technique in general: Cellular ATP, detected with luciferase, serves as a proxy for viable cell number.

The structures appear in SMILES notation. Like-named read-outs stand apart in the source and are kept apart here.

`Cc1ccc2c(Nc3cccc(Cl)c3F)nccc2c1NC(=O)c1csc2c(N)ncnc12` [Belvarafenib, reference compound]: the EC50 is 300 to 3000 nM with SW480 cells (Homo sapiens, 72 h); less than 300 nM in the test on Lovo cells (Homo sapiens, 72 h); 300 to 3000 nM in the test with NCI-H2122 cells (Homo sapiens, 72 h); less than 300 nM in the test on Calu6 cells (Homo sapiens, Calu-6, 72 h). Besides, the half-maximal inhibitory concentration (IC50) with pERK, NCIH1755 cells (Homo sapiens, NCI-H1755) fell in the range of 30 to 300 nM. In addition, the “pERK value in parentheses, % inhibition (Ymin)” value (“pERK value … % inhibition (Ymin)” below) with pERK, NCIH1755 cells is listed as “(−79) %”.
Regarding `Cc1c(F)cccc1S(=O)(=O)Nc1ccc(F)c(Nc2ncnc3sc(-n4cc(C(=O)N5C6CCC5CN(C)C6)c5ccccc54)nc23)c1F` [Example 44], the EC50 in the test with SW480 cells, in the test with Lovo cells, with NCI-H2122 cells and in the test with Calu6 cells was less than 300 nM throughout. This compound also returned an IC50 in the test with pERK, NCIH1755 cells of less than 30 nM. Besides, the “pERK value … % inhibition (Ymin)” value with pERK, NCIH1755 cells is “(−9) %”.
On to `N#CC1(c2cccc3c2ncn3-c2nc3c(Nc4c(F)ccc(NS(=O)(=O)c5cccc(Cl)c5Cl)c4F)ncnc3s2)CC1` [Example 122], for which the EC50 was less than 300 nM in the test with SW480 cells, less than 300 nM with Lovo cells, 300 to 3000 nM in the test with NCI-H2122 cells and less than 300 nM with Calu6 cells. Further, the IC50 in the test on pERK, NCIH1755 cells was less than 30 nM. In the test with pERK, NCIH1755 cells, the “pERK value … % inhibition (Ymin)” value is on record as “(11) %”.
